Results as given in patent US20250051510A1, “CARBON-IODINE CONJUGATED POLYMER AND PREPARATION THEREOF, AND USE THEREOF FOR PREPARING LOCALIZATION MARKER” (Huazhong University of Science and Technology, priority 2021, published 2025).

How the values were obtained:
[1] = Local injection into rat leg muscles under CT guidance, CT marking over time; assay type: in vivo; conditions: rat leg muscle, iodine content increased by 25 times
Procedure: In order to verify whether the super-strong CT imaging effect of PIDA is practically applicable, the PIDA dispersion and iohexol with the same iodine content were injected locally into leg muscles of a rat respectively under CT guidance in the present invention. For effective CT marking, the CT signal intensity thereof should be 2 times or more that of background tissues. A background CT signal of rat muscle tissues is about 50 HU, so the CT marking signal intensity exceeding 100 HU can be regarded as effective CT marking. […] To further verify the high efficiency and location stability of PIDA CT imaging, in the present invention, iohexol with the iodine content being increased by 25 times was injected into a corresponding leg muscle site of a rat.

rat erythrocytes = experiment: Hemolysis test with rat erythrocytes; assay type: cell-based; conditions: PIDA dispersions of different concentrations; Triton = 100% hemolysis control
Procedure: When a material is applied in the biomedical field, in addition to the special imaging/treatment effect of the material, the biocompatibility of the material itself is the topic that people are most concerned about. At the cell level, PIDA dispersions of different concentrations were mixed with rat erythrocytes in the present invention. […] In addition, in the present invention, PIDA dispersions of different concentrations were respectively incubated together with 4Tl cells (mouse breast cancer cells), NIH 3T3 cells (mouse embryonic fibroblasts) and HEK 293T (human embryonic kidney cells) for 12 hours, and cell viability was verified by means of MTT verification.

## CC(=O)N(CC(O)CO)c1c(I)c(C(=O)NCC(O)CO)c(I)c(C(=O)NCC(O)CO)c1I (centres unmarked) [iohexol]
[1]
  time until CT enhancement completely disappeared: ≤ 6 h

## Triton
Rat erythrocytes
  hemolysis rate: complete hemolysis
